Assay results reported in patent US10888864B2, “Electrochemical metabolic activity detecting device” (The Governing Council of the University of Toronto, priority 2014, dated 2021).
In brackets after ≈: the same amount, converted by molar mass.

Columns and labels:
K. pneumoniae [1] = assay: standard microdilution assay with a 24 hour incubation; assay type: cell-based, Klebsiella pneumoniae; details: FIG. 5B; for MIC90: Klebsiella pneumoniae, 24 hour incubation
Procedure: (§1) An antibiotic susceptibility microdilution assay was also performed using the example device. […] After 24 hours, the absorbance at 600 nm was measured.
(§2) As this strain produces a beta lactamase, resistance to ampicillin, a beta-lactam antibiotic is expected.

K. pneumoniae [2] = assay: time required for antibiotics to hinder metabolic activity (resazurin fluorescence); assay type: cell-based, Klebsiella pneumoniae; details: K. pneumoniae 1×10^5 cfu/μL, antibiotic 100 μg/mL, LB media, 1 mM resazurin, 37° C., FIG. 16
Procedure: In order to choose a suitable incubation period for the susceptibility test, the time required for the antibiotics to begin inhibiting bacterial metabolic activity was investigated. […] The increase in fluorescence induced by the conversion of resazurin by metabolically active bacteria was recorded.

E. coli [3] = assay: standard microdilution assay with a 24 hour incubation; assay type: cell-based, Escherichia coli; details: absorbance at 600 nm, FIG. 5A
Procedure: as §1, §2

K. pneumoniae [4] = assay: on-chip electrochemical (resazurin) antibiotic susceptibility assay in undiluted urine; assay type: cell-based, Klebsiella pneumoniae; details: K. pneumoniae 100 cfu/μL in undiluted urine, 1 hour incubation at 37° C., FIG. 5D
Procedure: (§3) The performance of the example device for electrochemical detection in urine was investigated. Human urine (BioreclamationlVT) was centrifuged at 5000 g for 5 min to remove large particulates. E. coli and K. pneumoniae were diluted to 100 cfu/μL and spiked in the urine. Samples (200 μL) were introduced at 20 μL/min. […] Air was flushed through the device to form the wells followed by FC-40 (200 μL) (Sigma Aldrich, St. Louis, Mo.). Thus the total volume of all solutions introduced is 600 μL which requires 30 min to process at 20 μL/min. The device was incubated in a water bath at 37° C. for 1 hour. 10 minutes were required to scan the leads. Thus the total time for the assay from sample introduction to readout was 1 hour and 40 minutes.
(§4) Other studies were carried out to assess the suitability of the example device to rapidly determine the antibiotic resistance profile of bacteria in undiluted urine.
(§5) E. coli (UPEC) and K. pneumoniae present at 100 cfu/μL in undiluted urine were introduced into the example device. After capture, a culture medium, resazurin, and either ampicillin or ciprofloxacin were introduced. FIGS. 5C and 5D show the electrochemical signal obtained as a function of antibiotic concentration after a 1 hour incubation at 37° C.
as §2

E. coli (UPEC) = assay: as above; assay type: cell-based, Escherichia coli
Procedure: as §3, §4, §5
As this strain produces a beta lactamase, resistance to ampicillin, a beta-lactam antibiotic is expected. […]

E. coli [5] = assay: on-chip electrochemical antibiotic susceptibility assay in unpurified urine; assay type: cell-based, Escherichia coli; details: E. coli 100 cfu/μL in undiluted unpurified urine, 10 μm pre-filter, 37° C. for 1 hour, FIG. 5E
Procedure: The performance of the example device was also investigated for electrochemical detection in unpurified urine. E. coli were diluted to 100 cfu/μL and spiked in the unpurified human urine (BioreclamationlVT). The spiked urine (200 μL) was passed through a 10 μm filter to remove large particulates and directly introduced at 20 μL/min into the chip. […] Air was flushed through the device to form the wells followed by FC-40 (Sigma Aldrich, St. Louis, Mo.). The device was incubated in a water bath at 37° C.
A series of experiments were also performed to determine the antibiotic susceptibility of bacteria in unpurified urine. […] Currents are normalized to the maximum value. Error bars represent standard error.
E. coli were spiked directly into undiluted and unpurified urine at 100 cfu/μL. The sample was passed through a 10 μm filter that removed large particulates while allowing bacteria to pass. FIG. 18 illustrates the effect of pre-filter size on recovery of bacteria spiked in undiluted urine. […] No appreciable signal change was found when using a blank control sample of unpurified urine (see FIG. 4, discussed above).

SMILES | susceptibility call by standard microdilution assay (K. pneumoniae [1]) | MIC90 (K. pneumoniae [1]) | fluorescence signal (resazurin conversion) in presence of antibiotic (K. pneumoniae [2]) | minimum antibiotic concentration that inhibits 90% of bacterial growth (MIC90) (E. coli [3]) | electrochemical signal with increasing antibiotic concentration / susceptibility call (K. pneumoniae [4]) | effect on metabolism of E. coli (electrochemical scan) (E. coli (UPEC); 1 μg/mL antibiotic, E. coli in urine at 100 CFU/μL, 1 mM resazurin, 60 min at 37° C., FIG. 19B) | antibiotic concentration at which E. coli are susceptible (electrochemical signal) (E. coli [5]) | antibiotic concentration at which the bacteria are susceptible (electrochemical signal) (E. coli (UPEC); E. coli (UPEC) 100 cfu/μL in undiluted urine, 1 hour incubation at 37° C., FIG. 5C)
CC1(C)S[C@@H]2[C@H](NC(=O)[C@H](N)c3ccccc3)C(=O)N2[C@H]1C(=O)O [ampicillin] | resistant | > 100 µg/mL | fluorescence increases | 16 µg/mL | approximately constant | insufficient to inhibit the metabolism | – | –
O=C(O)c1cn(C2CC2)c2cc(N3CCNCC3)c(F)cc2c1=O [ciprofloxacin] | susceptible | 2 µg/mL (≈ 6.04 µM) | – | less than 0.1 μg/mL | susceptible | – | ≥ 1 µg/mL | above 1 μg/mL
